Experimental data taken from article PMC8319882 (Drugs in R&D, 2021).

Tested on: SARS-CoV-2 spike protein binding to ACE2

FLDKFNHNFKDLF [13AApi]
Inhibition of interaction between SARS-CoV-2 spike and immobilized ACE2: Greater than 40%
